# Test results: patent publication US20260256925A1, “INDAZOLE DERIVATIVES AS ESTROGEN RECEPTOR DEGRADERS” (REGENTS OF THE UNIVERSITY OF MICHIGAN, priority 2022, published 2026)
# Assays:
# ER = biological target: T1, ER (Homo sapiens, UniProt P03372); assay: In-cell western blot analysis, relative ER percentage (compounds B1-B126); assay type: cell-based; conditions: ER degradation, 16 hours, read-out: ICW DC50
# T1 construct: endogenous in cells; probably T47D or MCF-7
# T1 sequence (P03372 1-595): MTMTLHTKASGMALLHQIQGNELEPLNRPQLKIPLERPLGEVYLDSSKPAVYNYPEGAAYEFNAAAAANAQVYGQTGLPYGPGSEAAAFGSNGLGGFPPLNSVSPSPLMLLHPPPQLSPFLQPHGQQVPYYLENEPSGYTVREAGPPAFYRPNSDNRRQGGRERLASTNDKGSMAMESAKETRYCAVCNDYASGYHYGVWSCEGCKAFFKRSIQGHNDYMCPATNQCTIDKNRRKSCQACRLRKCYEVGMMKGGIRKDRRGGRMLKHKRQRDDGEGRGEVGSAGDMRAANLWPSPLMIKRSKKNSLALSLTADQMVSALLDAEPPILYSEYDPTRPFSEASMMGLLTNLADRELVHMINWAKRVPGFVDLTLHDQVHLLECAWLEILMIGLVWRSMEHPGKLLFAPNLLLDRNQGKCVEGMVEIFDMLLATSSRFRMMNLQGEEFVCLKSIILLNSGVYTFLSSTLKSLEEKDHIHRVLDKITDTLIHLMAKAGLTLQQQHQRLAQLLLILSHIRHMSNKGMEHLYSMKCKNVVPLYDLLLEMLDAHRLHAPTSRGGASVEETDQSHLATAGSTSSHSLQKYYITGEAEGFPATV
# Outline: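 Readout was a two-colour infrared in-cell western of formaldehyde-fixed cells after 16 h compound exposure at 0.5% DMSO, with 40,000 or 10,000 cells/well plated the previous night. Relative ER percentage compares treated wells against untreated/DMSO-treated wells taken as 100%.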
# [1] = Cell growth assay, WST-8 (compounds B1-B126); assay type: cell-based; conditions: 96 h; T47D cell line, WST-8, 4 days; read-out: Cell growth inhibition in T47D cell line IC50
# Outline: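 Read-out is WST-8 absorbance at 450 nm (2.5 h, 37° C) as a fraction of vehicle control, from three separate repeats. Compound exposure lasted 4 days, starting one day after plating 1500 cells/well.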
SMILES,DC50 (ER) [nM],IC50 [1] [nM]
"C[C@@H]1Cc2c(ccc3[nH]ncc23)[C@@H](c2ccc(N3CC4(CCC(CN5CCN6c7ccc8c(c7OC[C@H]6C5)CN(C5CCC(=O)NC5=O)C8=O)CC4)C3)cn2)N1CC(F)F (stereo partly drawn) [Compound B86, 3-((R)-7-((2-(6-((6S,8R)-7-(2,2-difluoroethyl)-8-methyl-6,7,8,9-tetrahydro-3H-pyrazolo[4,3-f]isoquinolin-6-yl)pyridin-3-yl)-2-azaspiro[3.5]nonan-7-yl)mcthyl)-1-oxo-1,3,5,5a,6,7,8,9-octahydro-2H-pyrazino[1′,2′:4,5][1,4]oxazino[2,3-e]isoindol-2-yl)piperidine-2,6-dione]",< 10,1 to 10
"C[C@@H]1Cc2c(ccc3[nH]ncc23)[C@@H](c2c(F)cc(N3CCC4(CC3)CN(CC(=O)N3CCN5c6cc7c(cc6OC[C@@H]5C3)C(=O)N(C3CCC(=O)NC3=O)C7)C4)cc2F)N1CC(F)F (stereo partly drawn) [Compound B21, 3-((S)-3-(2-(7-(4-((6S,8R)-7-(2,2-difluoroethyl)-8-methyl-6,7,8,9-tetrahydro-3H-pyrazolo[4,3-f]isoquinolin-6-yl)-3,5-difluorophenyl)-2,7-diazaspiro[3.5]nonan-2-yl)acetyl)-8-oxo-1,2,3,4,4a,5,8,10-octahydro-9H-pyrazino[1′,2′: 4,5][1,4]oxazino[2,3-f]isoindol-9-yl)piperidine-2,6-dione]",< 10,< 1
"COc1cc(N2CCC3(CCN(CC(=O)N4Cc5cc6c(cc5C4)C(=O)N(C4CCC(=O)NC4=O)C6=O)CC3)CC2)ccc1[C@@H]1c2ccc3[nH]ncc3c2C[C@@H](C)N1CC(F)F (stereo partly drawn) [Compound B51, 6-(2-(9-(4-((6S,8R)-7-(2,2-difluoroethyl)-8-methyl-6,7,8,9-tetrahydro-3H-pyrazolo[4,3-f]isoquinolin-6-yl)-3-methoxyphenyl)-3,9-diazaspiro[5.5]undecan-3-yl)acetyl)-2-(2,6-dioxopiperidin-3-yl)-6,7-dihydropyrrolo[3,4-f]isoindole-1,3(2H,5H)-dione]",10 to 100,> 10
"C[C@@H]1Cc2c(ccc3[nH]ncc23)[C@@H](c2ccc(N3CCC4(CC3)CC(CN3CCN5c6ccc(C(=O)N[C@H]7CCC(=O)NC7=O)nc6OC[C@H]5C3)CO4)cn2)N1CC(F)(F)F (stereo partly drawn) [Compound B93, (4aR)-N-((S)-2,6-dioxopiperidin-3-yl)-3-((8-(6-((6S,8R)-8-methyl-7-(2,2,2-trifluoroethyl)-6,7,8,9-tetrahydro-3H-pyrazolo[4,3-f]isoquinolin-6-yl)pyridin-3-yl)-1-oxa-8-azaspiro[4.5]decan-3-yl)methyl)-1,2,3,4,4a,5-hexahydropyrazino[1,2-d]pyrido[2,3-b][1,4]oxazine-8-carboxamide]",10 to 100,1 to 10
"C[C@@H]1Cc2c(ccc3[nH]ncc23)[C@@H](c2ccc(N3CCC(CN4CCC5(CC4)COc4c5ccc5c4CN(C4CCC(=O)NC4=O)C5=O)CC3)cn2)N1CC(F)(F)F (stereo partly drawn) [Compound B62, 3-(1′-((1-(6-((6S,8R)-8-methyl-7-(2,2,2-trifluoroethyl)-6,7,8,9-tetrahydro-3H-pyrazolo[4,3-f]isoquinolin-6-yl)pyridin-3-yl)piperidin-4-yl)methyl)-6-oxo-6,8-dihydro-2H,7H-spiro[furo[2,3-e]isoindole-3,4′-piperidin]-7-yl)piperidine-2,6-dione]",> 100,< 1
"C[C@@H]1Cc2c(ccc3[nH]ncc23)[C@@H](c2ccc(N3CCC(CN4CCN5c6ccc(C(=O)N[C@H]7CCC(=O)NC7=O)nc6OC[C@H]5C4)CC3)cn2)N1CC(F)(F)F [Compound B90, (R)-N-((S)-2,6-dioxopiperidin-3-yl)-3-((1-(6-((6S,8R)-8-methyl-7-(2,2,2-trifluoroethyl)-6,7,8,9-tetrahydro-3H-pyrazolo[4,3-f]isoquinolin-6-yl)pyridin-3-yl)piperidin-4-yl)methyl)-1,2,3,4,4a,5-hexahydropyrazino[1,2-d]pyrido[2,3-b][1,4]oxazine-8-carboxamide]",10 to 100,1 to 10
"COc1cc(N2CCC3(CC2)CC(CN2CCN4c5cc6c(cc5OC[C@@H]4C2)C(=O)N(C2CCC(=O)NC2=O)C6)C3)ccc1[C@@H]1c2ccc3[nH]ncc3c2C[C@@H](C)N1CC(F)F (stereo partly drawn) [Compound B54, 3-((S)-3-((7-(4-((6S,8R)-7-(2,2-difluoroethyl)-8-methyl-6,7,8,9-tetrahydro-3H-pyrazolo[4,3-f]isoquinolin-6-yl)-3-methoxyphenyl)-7-azaspiro[3.5]nonan-2-yl)methyl)-8-oxo-1,2,3,4,4a,5,8,10-octahydro-9H-pyrazino[1′,2′:4,5][1,4]oxazino[2,3-f]isoindol-9-yl)piperidine-2,6-dione]",< 10,1 to 10
"C[C@@H]1Cc2c(ccc3[nH]ncc23)[C@@H](c2ccc(N3CC4(CCC(CN5CCN6c7ccc8c(c7OC[C@H]6C5)CN(C5CCC(=O)NC5=O)C8=O)CC4)C3)cn2)N1CC(F)(F)F (stereo partly drawn) [Compound B108, 3-((R)-7-((2-(6-((6S,8R)-8-methyl-7-(2,2,2-trifluoroethyl)-6,7,8,9-tetrahydro-3H-pyrazolo[4,3-f]isoquinolin-6-yl)pyridin-3-yl)-2-azaspiro[3.5]nonan-7-yl)methyl)-1-oxo-1,3,5,5a,6,7,8,9-octahydro-2H-pyrazino[1′,2′:4,5][1,4]oxazino[2,3-e]isoindol-2-yl)piperidine-2,6-dione]",< 10,< 1
"COc1cc(N2CC3(CCC(CN4CCN5c6ccc7c(c6OC[C@H]5C4)CN(C4CCC(=O)NC4=O)C7=O)CC3)C2)ccc1[C@@H]1c2ccc3[nH]ncc3c2C[C@@H](C)N1CC(F)F (stereo partly drawn) [Compound B84, 3-((R)-7-((2-(4-((6S,8R)-7-(2,2-difluoroethyl)-8-methyl-6,7,8,9-tetrahydro-3H-pyrazolo[4,3-f]isoquinolin-6-yl)-3-methoxyphenyl)-2-azaspiro[3.5]nonan-7-yl)methyl)-1-oxo-1,3,5,5a,6,7,8,9-octahydro-2H-pyrazino[1′,2′:4,5][1,4]oxazino[2,3-e]isoindol-2-yl)piperidine-2,6-dione]",> 100,> 10
"C[C@@H]1Cc2c(ccc3[nH]ncc23)[C@@H](c2ccc(N3CCC(CN4CCN(c5ccc6c(c5)CN(C5CCC(=O)NC5=O)C6=O)CC4)CC3)cn2)N1CC(F)(F)F (stereo partly drawn) [Compound B63, 3-(5-(4-((1-(6-((6S,8R)-8-methyl-7-(2,2,2-trifluoroethyl)-6,7,8,9-tetrahydro-3H-pyrazolo[4,3-f]isoquinolin-6-yl)pyridin-3-yl)piperidin-4-yl)methyl)piperazin-1-yl)-1-oxoisoindolin-2-yl)piperidine-2,6-dione]",< 10,< 1
"C[C@@H]1Cc2c(ccc3[nH]ncc23)[C@@H](c2ccc(N3CCC4(CC3)CC(CN3CCN5c6ccc(C(=O)N(C)C7CCC(=O)NC7=O)nc6OC[C@H]5C3)C4)cn2)N1CC(F)(F)F (stereo partly drawn) [Compound B92, (4aR)-N-(2,6-dioxopiperidin-3-yl)-N-methyl-3-((7-(6-((6S,8R)-8-methyl-7-(2,2,2-trifluoroethyl)-6,7,8,9-tetrahydro-3H-pyrazolo[4,3-f]isoquinolin-6-yl)pyridin-3-yl)-7-azaspiro[3.5]nonan-2-yl)methyl)-1,2,3,4,4a,5-hexahydropyrazino[1,2-d]pyrido[2,3-b][1,4]oxazine-8-carboxamide]",> 100,> 10
"COc1cc(N2CCC3(CC2)CC(CN2CCN4c5ccc6c(c5OC[C@H]4C2)CN(C2CCC(=O)NC2=O)C6=O)C3)ccc1[C@@H]1c2ccc3[nH]ncc3c2C[C@@H](C)N1CC(F)F (stereo partly drawn) [Compound B82, 3-((R)-7-((7-(4-((6S,8R)-7-(2,2-difluoroethyl)-8-methyl-6,7,8,9-tetrahydro-3H-pyrazolo[4,3-f]isoquinolin-6-yl)-3-methoxyphenyl)-7-azaspiro[3.5]nonan-2-yl)methyl)-1-oxo-1,3,5,5a,6,7,8,9-octahydro-2H-pyrazino[1′,2′:4,5][1,4]oxazino[2,3-e]isoindol-2-yl)piperidine-2,6-dione]",10 to 100,< 1
"COc1cc(N2CCC3(CC2)CC(CN2CCN4c5ccc6c(c5OC[C@H]4C2)CN([C@H]2CCC(=O)NC2=O)C6=O)CO3)ccc1[C@@H]1c2ccc3[nH]ncc3c2C[C@@H](C)N1CC(F)F (stereo partly drawn) [Compound B81, (3S)-3-((5aR)-7-((8-(4-((6S,8R)-7-(2,2-difluoroethyl)-8-methyl-6,7,8,9-tetrahydro-3H-pyrazolo[4,3-f]isoquinolin-6-yl)-3-methoxyphenyl)-1-oxa-8-azaspiro[4.5]decan-3-yl)methyl)-1-oxo-1,3,5,5a,6,7,8,9-octahydro-2H-pyrazino[1′,2′:4,5][1,4]oxazino[2,3-e]isoindol-2-yl)piperidine-2,6-dione]",< 10,< 1
